Experimental findings from patent US12264127B1, “8-((3-formyl-4-hydroxyphenyl)diazenyl)naphthalene-1,3-disulfonic acid as an antioxidant compound” (KING FAISAL UNIVERSITY, priority 2023, dated 2025) are described below.

The structures appear in SMILES notation.

This test is described as follows: DPPH radical scavenging antioxidant test. It counts as biochemical. The settings on record: 517 nm; for Inhibition (radical scavenging inhibition): 0.2 mL DPPH (0.75 mM), compound 3 μM in ethanol, 30 min incubation in the dark. The method, then:
The antioxidant properties of the 8-((3-formyl-4-hydroxyphenyl)diazenyl)naphthalene-1,3-disulfonic acid were studied by adding 0.2 mL DPPH (0.75 mM)) to compound 8-((3-formyl-4-hydroxyphenyl)diazenyl)naphthalene-1,3-disulfonic acid (III) (3 μM) in ethanol. After 30 min of incubation in the dark, the absorbance was read against a blank at 517 nm. Ascorbic acid (vitamin C) was used as standard antioxidants (positive control). A blank sample was prepared by 0.2 ml of DPPH in 3 ml ethanol. A negative control sample was run using ethanol instead of the sample. The radical scavenging inhibition was calculated using the following equation: […]
The antioxidant activity for the synthesized compound is listed in Table 1, using Vitamin C as a reference.
(DPPH is a stable violet radical that fades when it is reduced.)

As for `O=Cc1cc(N=Nc2cccc3cc(S(=O)(=O)O)cc(S(=O)(=O)O)c23)ccc1O` [Product III, 8-((3-formyl-4-hydroxyphenyl)diazenyl)naphthalene-1,3-disulfonic acid], the “Inhibition (radical scavenging inhibition)” value is given as 54%. Further, the “antioxidant potential compared to vitamin C (in words)” value (DPPH in vitro test, vitamin C as positive control) was “high potential as an antioxidant compared to vitamin C”.
Turning to `O=C1O[C@H]([C@@H](O)CO)C(O)=C1O` [vit c, Ascorbic acid, reference compound], the “Inhibition (radical scavenging inhibition)” value was determined as 74%.
